# Article PMC12610721, “The Action of Cannabidiol on Doxycycline Cytotoxicity in Human Cells—In Vitro Study” (Molecules, 2025)
# Like-named read-outs stand apart in the source and are kept apart here.
# Columns and labels:
# HepG2 cells [1] = test: proliferation, total cellular protein (TPC assay)
# Procedure: (§1) This innovative study evaluated the effects of cannabidiol (Cannabis sativa L.) on doxycycline-induced toxicity using three cell cultures: neural—SH-SY5Y, liver—HepG2, and kidney—HEK-293. […] A series of cytotoxicity assays included assessments of mitochondrial activity, lysosomal activity, cell membrane integrity, DNA synthesis, and cell proliferation. Based on the obtained results, IC50 values for doxycycline, both in monotherapy and in combination with CBD, were calculated, along with evaluations of ROS, death of cells, and morphology. The interaction between the drug and CBD was further analyzed by the combination index (CI).
# (§2) This assay is based on staining total cellular proteins as a measure of proliferation. After incubation, the medium containing the test compounds was removed, and 100 µL of Coomassie Brilliant Blue R-250 dye was added to each well. The plate was shaken for 10 min. The dye was then removed, and the cells were rinsed twice with 100 µL of washing solution (glacial acetic acid/ethanol/water, 5:10:85, v/v/v). Next, 100 µL of desorbing solution (1 M potassium acetate) was added, and the plate was shaken again for 10 min. Absorbance was measured at 595 nm using the Synergy 2 Multi-Mode Microplate Reader (BioTek® Instruments Inc., Winooski, VT, USA), with a blank as reference. Cytotoxicity was expressed as a percentage relative to the negative control.
# (§3) To determine the types of interaction that occur when cells are exposed to combinations of DOX and CBD, the method established by Chou and Talalay was used in this study. The dose–effect relationships of the individual and combined test compounds were modeled biometrically using the Median-Effect Equation based on the Mass Action Law.fa/fu = (D/Dm)^m
# (§4) In this isobolographic analysis, the combination index (CI) is a quantitative parameter used to evaluate the type and strength of interactions between multiple compounds. For all combinations, CI values were calculated across a range of affected fractions (Fa) from 0.05 to 0.95 (corresponding to 5–95% toxicity). CI values of 0.9–1.1, <0.9, and >1.1 indicate additive, synergistic, and antagonistic effects, respectively.
# (§5) The study was conducted in three independent experiments (n = 3). […] Cytotoxicity data were analyzed using one-way analysis of variance (ANOVA), followed by Dunnett’s post hoc test to assess significance relative to the negative control. The half-maximal inhibitory concentration (IC50), representing the drug or drug–CBD mixture concentration required to inhibit cell viability by 50%, was calculated using GraphPad Prism 5.0. Statistical comparisons between IC50 values were performed using ANOVA followed by Tukey’s post hoc test. Differences were considered statistically significant at p ≤ 0.05.
# SH-SY5Y cells [2] = test: proliferation, total cellular protein (TPC assay); conditions: 72 h
# Procedure: as §1, §2, §3, §4, §5
# HEK-293 cells [3] = test: proliferation, total cellular protein (TPC assay)
# Procedure: as §1, §2, §3, §4, §5
# [4] = cited from earlier work
# SH-SY5Y cells [5] = system: SH-SY5Y cells; parameters: method as in PMID 16341128; conditions: 24 h, cited from earlier work
# HepG2 cells [6] = system: HepG2 cells; parameters: method as in PMID 22116976; conditions: HepG2, 20 µM (10.3 µg/mL); inhibited mitochondrial activity, membrane damage, increased ROS; cited from earlier work
# [7] = system: rat neuronal cell line PC12; parameters: method as in PMID 33798505; conditions: PC12, 24 h, 20 µM (10.26 µg/mL); cited from earlier work
# HepG2 cells [8] = test: DNA synthesis (BrdU assay)
# Procedure: as §1
# (§6) Cell proliferation was evaluated using the BrdU assay (Cell Proliferation ELISA, BrdU [colorimetric], Roche, Switzerland) according to the manufacturer’s instructions. Briefly, BrdU was incorporated into newly synthesized DNA in place of thymidine during cell division. Incorporated BrdU was detected using an anti-BrdU antibody conjugated with peroxidase. The enzymatic reaction product was quantified by measuring absorbance. Absorbance was measured at 370 nm and 492 nm using the Synergy 2 Multi-Mode Microplate Reader (BioTek® Instruments Inc., Winooski, VT, USA), with a blank as reference.
# as §3, §4, §5
# SH-SY5Y cells [9] = test: DNA synthesis (BrdU assay); conditions: 72 h
# Procedure: as §1, §6, §3, §4, §5
# HEK-293 cells [10] = test: DNA synthesis (BrdU assay); conditions: for doxycycline concentration that inhibited DNA synthesis: HEK-293, BrdU, 72 h
# Procedure: as §1, §6, §3, §4, §5
# SH-SY5Y cells [11] = conditions: 72 h, Hoechst 33342/propidium iodide
# Procedure: The type and extent of cell death in the control and treated cultures were evaluated using fluorochrome staining with Hoechst 33342 and propidium iodide to assess apoptosis and necrosis [88]. Dead cells were analyzed morphologically using a fluorescence microscope (Axiovert 200 M, Zeiss, Oberkochen, Germany). Cells with pink, fluorescent nuclei were considered necrotic, whereas cells with blue, fluorescent nuclei (fragmented and/or condensed chromatin) were classified as apoptotic.
# HepG2 cells [12] = test: cellular morphology (May–Grünwald–Giemsa staining); format: cell-based, human; conditions: HepG2, 72 h
# Procedure: (§7) This method was used to illustrate changes in cell morphology under the influence of the tested compounds. The staining was performed on Lab-Tek plates (Nunc, NY, USA). Cells at a density of 1 × 10^5 cells/mL were used. After 72 h of incubation with or without the tested drugs (control), the culture medium was removed, and the cells were stained with 1 mL of May–Grünwald dye for 3 min at room temperature. Then, 1 mL of deionized water was added to each plate. After another 3 min of incubation at room temperature, the liquid was removed. All plates were rinsed with deionized water, and the cells were subsequently stained with Giemsa dye (dilution 1:20) for 30 min at room temperature. After staining, the dye was removed, the wells were rinsed with 1 mL of deionized water, and the plates were allowed to dry. Images were captured using a light microscope (Zeiss, Oberkochen, Germany).
# SH-SY5Y cells [13] = test: cellular morphology (May–Grünwald–Giemsa staining); format: cell-based, human; conditions: 72 h
# Procedure: as §7
# HEK-293 cells [14] = test: cellular morphology (May–Grünwald–Giemsa staining); format: cell-based, human; conditions: HEK-293, 72 h
# Procedure: as §7
compound,measurement,setting,value
"C[C@H]1c2cccc(O)c2C(=O)C2=C(O)[C@]3(O)C(=O)C(C(N)=O)=C(O)[C@@H](N(C)C)[C@@H]3[C@@H](O)[C@@H]21 [DOX, doxycycline hyclate]",doxycycline concentration that reduced cell proliferation,"HepG2 cells [1]; HepG2, TPC, 72 h",50 µg/mL
same,IC50,"HepG2 cells [1]; Homo sapiens, HepG2, 72 h",> 200 µg/mL
same,IC50,SH-SY5Y cells [2]; Homo sapiens,> 200 µg/mL
same,doxycycline concentration at which cell proliferation decreased,SH-SY5Y cells [2]; TPC,50 µg/mL
same,doxycycline concentration that inhibited cell proliferation,"HEK-293 cells [3]; HEK-293, TPC, 72 h",12.5 µg/mL
same,IC50,"HEK-293 cells [3]; Homo sapiens, HEK293, 72 h",14.8 ± 1.3 µg/mL
same,DOX level in breast muscles,[4]; breast muscles,32.4 ± 3.6 µg/kg
same,residues of DOX detected in eggs,[4]; eggs,up to 1400 μg/kg
same,DOX concentration accumulated in the kidneys,[4]; kidneys,44.7 ± 4.3 µg/kg
same,DOX concentration measured in the liver,[4]; liver,21.6 ± 3.2 µg/kg
same,residues of DOX detected in milk,[4]; milk,5 to 490 µg/kg
same,DOX level in thigh muscles,[4]; thigh muscles,22.7 ± 2.9 µg/kg
same,effect on cell density,SH-SY5Y cells [5]; 1 µg/mL,minimal
same,effect on cell density,SH-SY5Y cells [5]; higher concentrations up to 4 µg/mL,decreased SH-SY5Y cell density
same,effect on cell viability,HepG2 cells [6],reduced cell viability
same,neurotoxicity,[7],no signs of neurotoxicity
same,doxycycline concentration that inhibited DNA synthesis,"HepG2 cells [8]; HepG2, BrdU, 72 h",12.5 µg/mL
same,IC50,"HepG2 cells [8]; Homo sapiens, HepG2, 72 h",24 ± 0.4 µg/mL
same,doxycycline concentration that inhibited DNA synthesis,SH-SY5Y cells [9]; BrdU,12.5 µg/mL
same,IC50,SH-SY5Y cells [9]; Homo sapiens,15.6 ± 0.7 µg/mL
same,doxycycline concentration that inhibited DNA synthesis,HEK-293 cells [10],3.12 µg/mL
same,doxycycline concentration that inhibited DNA synthesis,HEK-293 cells [10]; listed as doxycycline,3.125 µg/mL
same,IC50,"HEK-293 cells [10]; Homo sapiens, HEK293, 72 h",8.9 ± 0.1 µg/mL
same,proportion of apoptotic and necrotic cells,SH-SY5Y cells [11],increased the proportion of apoptotic and necrotic cells
same,proportion of apoptotic and necrotic cells,SH-SY5Y cells [11]; listed as doxycycline,marked increase in apoptotic and necrotic cell populations
same,morphological changes,HepG2 cells [12],cell aggregation followed by detachment from the adhesive surface
same,morphological changes,SH-SY5Y cells [13],cell aggregation followed by detachment from the adhesive surface
same,morphological changes,HEK-293 cells [14],cell aggregation followed by detachment from the adhesive surface
